{"source": "patent US8221738B2", "about": "“Method for enhanced uptake of viral vectors in the myocardium” (Celladon Corporation, priority 2008, dated 2012)", "key": {"[1]": {"system": "SERCA2a mRNA", "test": "SERCA2a mRNA expression via RT-PCR in heart sections, 30 day single dose tissue distribution study", "assay_type": "in vivo, Göttingen Minipigs", "conditions": "nitroglycerin given with AAV1/SERCA2a; especially deep myocardial regions (septum, middle layer anterior wall)", "protocol": "(§1) Administration on Day 0 was via the direct coronary infusion procedure described below. Animals from Groups 1-3 were dosed with a total volume of 12 mL of AAV1/SERCA2a solution which was infused at a constant rate of 1.2 mL/minute over a 10 minute period. Animals from Groups 3 and 4 received nitroglycerin as a bolus intracoronary injection immediately prior to administration of AAV1/SERCA2a. Animals from Group 3 were dosed with a total volume of 12 mL of AAV1/SERCA2a and nitroglycerin solution, which was infused at a constant rate of 1.2 mL/minute over a 10 minute period. Animals from Group 4 were dosed with a total volume of 12 mL of normal saline, which was infused at a constant rate of 1.2 mL/minute over a 10 minute period. The direct infusion system is composed of standard (commercially available) components including a conventional guide sheath, 0.014″ guide-wire, a 5F infusion (guide) catheter and two programmable syringe pumps. […]\nTotal mRNA and protein expression in the left ventricle of individual sections was calculated (sum of sections 1-10 in FIG. 1), and the septum (section #5 in FIG. 1), and the middle layer anterior wall (section #6 in FIG. 1) were also analyzed separately, as these regions represent deep myocardium, furthest from the site of infusion. […]"}, "[2]": {"test": "Hemodynamic monitoring (mean aortic/arterial pressure) during administration of AAV1/SERCA2a", "assay_type": "in vivo, Göttingen Minipigs", "conditions": "Groups 3 and 4 (nitroglycerin treated animals); maximum; except one time point in group 4", "protocol": "as §1, with “pumps. The direct intracoronary infusion procedure began with introduction of the conventional guide sheath using a common carotid arterial or femoral arterial approach. The Coronary Infusion Catheter (e.g., Cordis Vista Brite Tip Guiding Catheter or similar model appropriate for cannulation of the left main coronary artery) was then placed in the left main coronary artery under fluoroscopic guidance.” for “pumps.”"}}}
{"molecule": "O=[N+]([O-])OCC(CO[N+](=O)[O-])O[N+](=O)[O-]", "note": "[nitroglycerin, glyceryl trinitrate]", "values": [{"measurement": "vector uptake", "setting": "[1]", "result": "enhanced"}, {"measurement": "decrease in Mean arterial pressure (MAP) compared to baseline", "setting": "[2]", "result": "≤ 6", "unit": "mm Hg"}]}
